Residues, ends and D or L forms follow the SMILES beside them. No end group written: not given here.
Experiments:
[1] = tested on: trypsin; experiment: Protease stability by RP HPLC; format: in vitro ADME; settings: 5 µL of 10 mg/mL peptide in 25 µL of 0.2-µg/mL trypsin in PBS, 37°C, 0, 0.5, 1.0, 2.0 and 4 h; C18 RP-HPLC, 224 nm
Description: Five microliters of an aqueous peptide stock solution (10 mg/mL) were added to 25 µL of the 0.2-µg/mL trypsin solution in PBS, respectively, and incubated at 37°C for 0, 0.5, 1.0, 2.0, and 4 h. The 5-µL solution was taken out at each time interval and immediately frozen with liquid nitrogen. Individually thawed samples were loaded onto a C18 reverse-phase column for HPLC analysis (5 µm; 4.6 mm ×250 mm; Vydac). Peptides were eluted by a 60-min linear gradient of 0–90% (v/v) acetonitrile in water containing 0.05% (v/v) trifluoroacetic acid with a flow rate of 1 mL/min and detection of 224 nm.

[2] = tested on: hRBCs versus four bacterial strains; experiment: Prokaryotic selectivity (therapeutic index, HC10/GM); settings: ratio of HC10 to GM; 512 µg/mL used for HC10 >256 and 128 µg/mL for MIC >64
Description: (§1) The prokaryotic selectivity of our designed HDAMPs is defined by the therapeutic index (TI) as a measure of the relative safety of the drug. It is a measure of a peptide's capability to differentiate any pathogen from a host cell. The TI value of each peptide was calculated as the ratio of the HC10 (the peptide concentration that produces 10% hemolysis toward hRBCs) to the geometric mean [GM; the geometric mean of the minimal inhibitory concentration (MIC) against four selected bacterial strains]. Larger values of TI correspond to greater prokaryotic selectivity.

[3] = tested on: P. aeruginosa [KCTC 1637]; format: cell-based, Pseudomonas aeruginosa; settings: KCTC 1637, 20 h
Description: (§2) The antimicrobial activity of the peptides against two Gram-positive bacterial strains and two Gram-negative bacterial strains was examined using the broth microdilution method in sterile 96-well plates. Aliquots (100 µL) of a bacterial suspension at 2×10^6 colony-forming units (CFU)/mL in 1% peptone were added to 100 µL of the peptide solution (serial two-fold dilutions in 1% peptone). After incubation for 18−20 h at 37°C, bacterial growth inhibition was determined by measuring the absorbance at 600 nm with a Microplate Autoreader EL 800 (Bio-Tek Instruments, VT). The minimal inhibitory concentration (MIC) was defined as the minimum peptide concentration inhibited bacteria growth. Two types of Gram-positive bacteria (S. epidermidis [KCTC 1917] and S. aureus [KCTC 1621]) and two types of Gram-negative bacteria (E. coli [KCTC 1682] and P. aeruginosa [KCTC 1637]) were procured from the Korean Collection for Type Cultures (KCTC) at the Korea Research Institute of Bioscience and Biotechnology (KRIBB). MRSA samples (CCARM 3089, CCARM 3090, and CCARM 3095) were obtained from the Culture Collection of Antibiotic-Resistant Microbes (CCARM) at Seoul Women's University (Seoul, Korea).

[4] = tested on: E. coli [KCTC 1682]; format: cell-based, Escherichia coli; settings: KCTC 1682, 20 h
Description: as §2

[5] = tested on: S. epidermidis [KCTC 1917]; format: cell-based, Staphylococcus epidermidis; settings: KCTC 1917, 20 h
Description: as §2

[6] = tested on: MRSA 3 [CCARM 3095]; format: cell-based, methicillin-resistant Staphylococcus aureus; settings: CCARM 3095, 20 h
Description: as §2

[7] = tested on: MRSA 1 [CCARM 3089]; format: cell-based, methicillin-resistant Staphylococcus aureus; settings: CCARM 3089, 20 h
Description: as §2

[8] = tested on: MRSA 2 [CCARM 3090]; format: cell-based, methicillin-resistant Staphylococcus aureus; settings: CCARM 3090, 20 h
Description: as §2

[9] = tested on: four bacterial strains (E. coli, P. aeruginosa, S. epidermidis, S. aureus); format: cell-based; settings: 20 h
Description: as §1, §2

[10] = tested on: S. aureus [KCTC 1621]; format: cell-based, Staphylococcus aureus; settings: KCTC 1621, 20 h
Description: as §2

N=C(N)NCCC[C@H](NC(=O)[C@H](Cc1c[n+](CCCCCCCc2ccccc2)cn1CCCCCCCc1ccccc1)NC(=O)[C@@H](N)CCCNC(=N)N)C(N)=O [HDAMP-1, Arg-His((CH2)7C6H5)2-Arg-NH2]
resistance to proteolysis by trypsin, remaining peptide by RP-HPLC (in words) [1]: fully resistant
TI (HC10/GM), therapeutic index [2]: 10.3
Minimal Inhibitory Concentration (MIC) P. aeruginosa [KCTC 1637] [3]: 4 (4.9) µg/mL
Minimal Inhibitory Concentration (MIC) E. coli [KCTC 1682] [4]: 4 (4.9) µg/mL
Minimal Inhibitory Concentration (MIC) S. epidermidis [KCTC 1917] [5]: 2 (2.5) µg/mL
Minimal Inhibitory Concentration (MIC) MRSA 3 [CCARM 3095] [6]: 2 (2.5) µg/mL
Minimal Inhibitory Concentration (MIC) MRSA 1 [CCARM 3089] [7]: 2 (2.5) µg/mL
Minimal Inhibitory Concentration (MIC) MRSA 2 [CCARM 3090] [8]: 2 (2.5) µg/mL
GM, geometric mean of the MIC values against four bacterial strains [9]: 3.5 (4.3) µg/mL
Minimal Inhibitory Concentration (MIC) S. aureus [KCTC 1621] [10]: 4 (4.9) µg/mL

N=C(N)NCCC[C@H](NC(=O)[C@H](Cc1c[n+](CCCc2ccccc2)cn1CCCc1ccccc1)NC(=O)[C@@H](N)CCCNC(=N)N)C(N)=O [HDAMP-2]
TI (HC10/GM), therapeutic index [2]: 56.9
Minimal Inhibitory Concentration (MIC) P. aeruginosa [KCTC 1637] [3]: 16 (22.7) µg/mL
Minimal Inhibitory Concentration (MIC) E. coli [KCTC 1682] [4]: 4 (5.7) µg/mL
Minimal Inhibitory Concentration (MIC) S. epidermidis [KCTC 1917] [5]: 8 (11.4) µg/mL
Minimal Inhibitory Concentration (MIC) MRSA 3 [CCARM 3095] [6]: 16 (22.7) µg/mL
Minimal Inhibitory Concentration (MIC) MRSA 1 [CCARM 3089] [7]: 16 (22.7) µg/mL
Minimal Inhibitory Concentration (MIC) MRSA 2 [CCARM 3090] [8]: 32 (45.5) µg/mL
GM, geometric mean of the MIC values against four bacterial strains [9]: 9 (12.8) µg/mL
Minimal Inhibitory Concentration (MIC) S. aureus [KCTC 1621] [10]: 8 (11.4) µg/mL

N=C(N)NCCC[C@H](NC(=O)[C@@H](N)Cc1c[n+](CCCCCCCc2ccccc2)cn1CCCCCCCc1ccccc1)C(N)=O [HDAMP-3]
resistance to proteolysis by trypsin, remaining peptide by RP-HPLC (in words) [1]: fully resistant
TI (HC10/GM), therapeutic index [2]: 6.3
Minimal Inhibitory Concentration (MIC) P. aeruginosa [KCTC 1637] [3]: 4 (6.1) µg/mL
Minimal Inhibitory Concentration (MIC) E. coli [KCTC 1682] [4]: 4 (6.1) µg/mL
Minimal Inhibitory Concentration (MIC) S. epidermidis [KCTC 1917] [5]: 2 (3) µg/mL
Minimal Inhibitory Concentration (MIC) MRSA 3 [CCARM 3095] [6]: 2 (3) µg/mL
Minimal Inhibitory Concentration (MIC) MRSA 1 [CCARM 3089] [7]: 2 (3) µg/mL
Minimal Inhibitory Concentration (MIC) MRSA 2 [CCARM 3090] [8]: 2 (3) µg/mL
GM, geometric mean of the MIC values against four bacterial strains [9]: 3 (4.6). µg/mL
Minimal Inhibitory Concentration (MIC) S. aureus [KCTC 1621] [10]: 2 (3) µg/mL

N=C(N)NCCC[C@H](NC(=O)[C@H](Cc1cncn1CCCCCCCc1ccccc1)NC(=O)[C@@H](N)CCCNC(=N)N)C(N)=O [HDAMP-4]
TI (HC10/GM), therapeutic index [2]: 29.3
Minimal Inhibitory Concentration (MIC) P. aeruginosa [KCTC 1637] [3]: 32 (49.9) µg/mL
Minimal Inhibitory Concentration (MIC) E. coli [KCTC 1682] [4]: 32 (49.9) µg/mL
Minimal Inhibitory Concentration (MIC) S. epidermidis [KCTC 1917] [5]: 2 (3.1) µg/mL
Minimal Inhibitory Concentration (MIC) MRSA 3 [CCARM 3095] [6]: 16 (24.9) µg/mL
Minimal Inhibitory Concentration (MIC) MRSA 1 [CCARM 3089] [7]: 16 (24.9) µg/mL
Minimal Inhibitory Concentration (MIC) MRSA 2 [CCARM 3090] [8]: 16 (24.9) µg/mL
GM, geometric mean of the MIC values against four bacterial strains [9]: 17.5 (27.3) µg/mL
Minimal Inhibitory Concentration (MIC) S. aureus [KCTC 1621] [10]: 4 (6.2) µg/mL

N=C(N)NCCC[C@@H](N)C(=O)N[C@@H](Cc1c[n+](CCCCCCCc2ccccc2)cn1CCCCCCCc1ccccc1)C(=O)N[C@H](CCCNC(=N)N)C(N)=O [HDAMP-5]
resistance to proteolysis by trypsin, remaining peptide by RP-HPLC (in words) [1]: fully resistant
TI (HC10/GM), therapeutic index [2]: 10.8
Minimal Inhibitory Concentration (MIC) P. aeruginosa [KCTC 1637] [3]: 16 (19.6) µg/mL
Minimal Inhibitory Concentration (MIC) E. coli [KCTC 1682] [4]: 16 (19.6) µg/mL
Minimal Inhibitory Concentration (MIC) S. epidermidis [KCTC 1917] [5]: 8 (9.8) µg/mL
Minimal Inhibitory Concentration (MIC) MRSA 3 [CCARM 3095] [6]: 8 (9.8) µg/mL
Minimal Inhibitory Concentration (MIC) MRSA 1 [CCARM 3089] [7]: 8 (9.8) µg/mL
Minimal Inhibitory Concentration (MIC) MRSA 2 [CCARM 3090] [8]: 8 (9.8) µg/mL
GM, geometric mean of the MIC values against four bacterial strains [9]: 12.0 (14.7) µg/mL
Minimal Inhibitory Concentration (MIC) S. aureus [KCTC 1621] [10]: 8 (9.8) µg/mL

N=C(N)NCCC[C@@H](NC(=O)[C@@H](N)Cc1c[n+](CCCCCCCc2ccccc2)cn1CCCCCCCc1ccccc1)C(N)=O [HDAMP-6]
resistance to proteolysis by trypsin, remaining peptide by RP-HPLC (in words) [1]: fully resistant
TI (HC10/GM), therapeutic index [2]: 8
Minimal Inhibitory Concentration (MIC) P. aeruginosa [KCTC 1637] [3]: 4 (6.1) µg/mL
Minimal Inhibitory Concentration (MIC) E. coli [KCTC 1682] [4]: 4 (6.1) µg/mL
Minimal Inhibitory Concentration (MIC) S. epidermidis [KCTC 1917] [5]: 4 (6.1) µg/mL
Minimal Inhibitory Concentration (MIC) MRSA 3 [CCARM 3095] [6]: 2 (3) µg/mL
Minimal Inhibitory Concentration (MIC) MRSA 1 [CCARM 3089] [7]: 2 (3) µg/mL
Minimal Inhibitory Concentration (MIC) MRSA 2 [CCARM 3090] [8]: 2 (3) µg/mL
GM, geometric mean of the MIC values against four bacterial strains [9]: 3.5 (5.3) µg/mL
Minimal Inhibitory Concentration (MIC) S. aureus [KCTC 1621] [10]: 2 (3) µg/mL

N=C(N)NCCC[C@H](NC(=O)[C@H](Cc1c[nH]c2ccccc12)NC(=O)[C@@H](N)CCCNC(=N)N)C(N)=O [RWR-NH2, reference compound] (H-Arg-Trp-Arg-NH2)
Minimal Inhibitory Concentration (MIC) P. aeruginosa [KCTC 1637] [3]: >64 (>124) µg/mL
Minimal Inhibitory Concentration (MIC) E. coli [KCTC 1682] [4]: >64 (>124) µg/mL
Minimal Inhibitory Concentration (MIC) S. epidermidis [KCTC 1917] [5]: >64 (>124) µg/mL
GM, geometric mean of the MIC values against four bacterial strains [9]: >64 (>124) µg/mL
Minimal Inhibitory Concentration (MIC) S. aureus [KCTC 1621] [10]: >64 (>124) µg/mL

WRWRWR-NH2 [(WR)3-NH2, reference compound]
TI (HC10/GM), therapeutic index [2]: 56.9
Minimal Inhibitory Concentration (MIC) P. aeruginosa [KCTC 1637] [3]: 16 (15.3) µg/mL
Minimal Inhibitory Concentration (MIC) E. coli [KCTC 1682] [4]: 4 (3.8) µg/mL
Minimal Inhibitory Concentration (MIC) S. epidermidis [KCTC 1917] [5]: 8 (7.7) µg/mL
GM, geometric mean of the MIC values against four bacterial strains [9]: 9 (8.6) µg/mL
Minimal Inhibitory Concentration (MIC) S. aureus [KCTC 1621] [10]: 8 (7.7) µg/mL
